{
  "source": "patent US20070060636A1",
  "about": "“High enantiomeric purity dexanabinol for pharmaceutical compositions” (priority 2002, published 2007)",
  "key": {"[1]": {"system": "inflammatory bowel disease (IBD) model", "assay": "IBD induced by rectal 5% acetic acid solution", "assay_type": "in vivo, Sprague Dawley male rats", "protocol": "The pharmacological activity of dexanabinol of high enantiomeric purity in enema formulation was also tested and compared to oral and i.p. formulations, wherein oral delivery was performed using a hard gelatin capsule and i.p. delivery was performed using the CREMOPHOR EL®:ethanol formulation. IBD was induced in Sprague Dawley male rats, by rectal administration of a 5% acetic acid solution. The rectum was then washed with saline and animals were clinically observed (body weight, stool consistency and blood in stool) daily for 7 days. On the eighth day, the animals were sacrificed, their colon opened and gross pathology lesions were recorded (hyperemia, edema, number of erosions, ulcers, perforations and adhesions). Animals, at least six per group, were treated rectally (by enema) with either dexanabinol (5, 10, 20 or 40 mg/kg/day) or its vehicle or by oral gavage (20, 40, or 80 mg/kg/day or vehicle). Administration of acetic acid caused a decrease in body weight (up to 20%), changes in stool consistency (diarrhea) and appearance of blood in the stool 24 hours later. Spontaneous clinical healing was detected as animals regained weight and blood was no more evident in the stool. In the gross pathology scale, rectal dexanabinol 10 mg/kg had the best effect (more than 50% reduction of score) compared to its vehicle (p<0.05). […] The rectal dexanabinol dose of 10 mg/kg was pharmacologically equivalent to 20 mg/kg i.p. dose and 80 mg/kg oral dose."}, "[2]": {"assay": "international clinical trials, safety", "assay_type": "in vivo, human", "conditions": "more than 500 patients exposed, dexanabinol CREMOPHOR EL:ethanol product", "source_text": "A Safety Committee appointed to monitor patient data to ensure patient safety analyzed patients' data after the enrollment and in all cases the safety committee found the drug safe."}, "[3]": {"assay": "CREMOPHOR EL:ethanol formulations, dissolution and stability after dilution in saline", "assay_type": "physicochemical", "conditions": "for Stability following dilution in saline, Dilution 1/5 / Stability following dilution in saline, Dilution 1/10 / Stability following dilution in saline, Dilution 1/20: monitored 24 hours", "protocol": "Once it was established that a cosolvent formulation made of CREMOPHOR EL® (polyoxyl 35 castor oil) and ethanol is appropriate to dissolve the drug, a matrix of such formulations was prepared at various concentrations (from 30 to 70% w/w of each ingredient) and with increasing amounts of dexanabinol of high enantiomeric purity (20, 50 and 100 mg/ml). The exact composition of these formulations is described in the left hand side of Table 5. The drug cosolvent concentrates were diluted at various ratios in saline and the stability of the drug in the resulting solutions was monitored for 24 hours."}, "[4]": {"conditions": "20 mg/ml in 30% CREMOPHOR EL/70% ethanol"}, "[5]": {"conditions": "20 mg/ml in 50% CREMOPHOR EL/50% ethanol"}, "[6]": {"conditions": "20 mg/ml in 70% CREMOPHOR EL/30% ethanol"}, "[7]": {"conditions": "50 mg/ml in 30% CREMOPHOR EL/70% ethanol"}, "[8]": {"conditions": "50 mg/ml in 50% CREMOPHOR EL/50% ethanol"}, "[9]": {"conditions": "50 mg/ml in 70% CREMOPHOR EL/30% ethanol"}, "[10]": {"conditions": "100 mg/ml in 30% CREMOPHOR EL/70% ethanol"}, "[11]": {"conditions": "100 mg/ml in 50% CREMOPHOR EL/50% ethanol"}, "[12]": {"conditions": "100 mg/ml in 70% CREMOPHOR EL/30% ethanol"}},
  "data": [
    {"smiles": "CCCCCCC(C)(C)c1cc(O)c2c(c1)OC(C)(C)[C@H]1CC=C(CO)C[C@H]21", "note": "[dexanabinol, 1,1-dimethylheptyl-(3S,4S)-7-hydroxy-Δ^6-tetrahydrocannabinol]", "values": [
      {"measurement": "i.p. dose pharmacologically equivalent to rectal dose of 10 mg/kg", "setting": "[1]; i.p., CREMOPHOR EL:ethanol formulation", "result": 20, "unit": "mg/kg"},
      {"measurement": "oral dose pharmacologically equivalent to rectal dose of 10 mg/kg", "setting": "[1]; oral", "result": 80, "unit": "mg/kg"},
      {"measurement": "clinical disease severity compared to the vehicle", "setting": "[1]; rectal 10 mg/kg", "result": "reduced also the clinical disease severity"},
      {"measurement": "reduction of gross pathology score compared to vehicle", "setting": "[1]; rectal (enema) 10 mg/kg, p<0.05", "result": "more than 50%"},
      {"measurement": "serious adverse reactions", "setting": "[2]", "result": "no serious adverse reactions were reported"},
      {"measurement": "amount of dexanabinol dissolved by CREMOPHOR EL:ethanol cosolvent formulations", "setting": "[3]", "result": "at least 100 mg/ml"},
      {"measurement": "Stability following dilution in saline, Dilution 1/5", "setting": "[3]; [4]", "result": "Stable"},
      {"measurement": "Stability following dilution in saline, Dilution 1/10", "setting": "[3]; [4]", "result": "Stable"},
      {"measurement": "Stability following dilution in saline, Dilution 1/20", "setting": "[3]; [4]", "result": "Stable"},
      {"measurement": "Stability following dilution in saline, Dilution 1/5", "setting": "[3]; [5]", "result": "Stable"},
      {"measurement": "Stability following dilution in saline, Dilution 1/10", "setting": "[3]; [5]", "result": "Stable"},
      {"measurement": "Stability following dilution in saline, Dilution 1/20", "setting": "[3]; [5]", "result": "Stable"},
      {"measurement": "Stability following dilution in saline, Dilution 1/5", "setting": "[3]; [6]", "result": "Stable"},
      {"measurement": "Stability following dilution in saline, Dilution 1/10", "setting": "[3]; [6]", "result": "Stable"},
      {"measurement": "Stability following dilution in saline, Dilution 1/20", "setting": "[3]; [6]", "result": "Stable"},
      {"measurement": "Stability following dilution in saline, Dilution 1/5: crystals appeared at", "setting": "[3]; [7]", "result": "appeared at 2 hours"},
      {"measurement": "Stability following dilution in saline, Dilution 1/10: crystals appeared at", "setting": "[3]; [7]", "result": 2, "unit": "h"},
      {"measurement": "Stability following dilution in saline, Dilution 1/20: crystals appeared at", "setting": "[3]; [7]", "result": 2.5, "unit": "h"},
      {"measurement": "Stability following dilution in saline, Dilution 1/5: stable at least", "setting": "[3]; [8]", "result": "least 7 hours"},
      {"measurement": "Stability following dilution in saline, Dilution 1/10: stable at least", "setting": "[3]; [8]", "result": "least 4 hours"},
      {"measurement": "Stability following dilution in saline, Dilution 1/20: stable at least", "setting": "[3]; [8]", "result": "≥ 7", "unit": "h"},
      {"measurement": "Stability following dilution in saline, Dilution 1/5: stable at least", "setting": "[3]; [9]", "result": "least 7 hours"},
      {"measurement": "Stability following dilution in saline, Dilution 1/10: stable at least", "setting": "[3]; [9]", "result": "least 7 hours"},
      {"measurement": "Stability following dilution in saline, Dilution 1/20: stable at least", "setting": "[3]; [9]", "result": "≥ 7", "unit": "h"},
      {"measurement": "stability after dilution with saline", "setting": "[3]; 50 mg/ml in 70:30 CREMOPHOR EL:ethanol, all ratios from 1:5 to 1:20", "result": "stable"},
      {"measurement": "Stability following dilution in saline, Dilution 1/5: crystals appeared at", "setting": "[3]; [10]", "result": 45, "unit": "min"},
      {"measurement": "Stability following dilution in saline, Dilution 1/10: crystals appeared at", "setting": "[3]; [10]", "result": 0.917, "unit": "h"},
      {"measurement": "Stability following dilution in saline, Dilution 1/20: crystals appeared at", "setting": "[3]; [10]", "result": 1.5, "unit": "h"},
      {"measurement": "Stability following dilution in saline, Dilution 1/5: crystals appeared at", "setting": "[3]; [11]", "result": 90, "unit": "min"},
      {"measurement": "Stability following dilution in saline, Dilution 1/10: crystals appeared at", "setting": "[3]; [11]", "result": 1.5, "unit": "h"},
      {"measurement": "Stability following dilution in saline, Dilution 1/20: crystals appeared at", "setting": "[3]; [11]", "result": 1.5, "unit": "h"},
      {"measurement": "Stability following dilution in saline, Dilution 1/5: crystals appeared at", "setting": "[3]; [12]", "result": "appeared at 2 hours"},
      {"measurement": "Stability following dilution in saline, Dilution 1/10: crystals appeared at", "setting": "[3]; [12]", "result": 2, "unit": "h"},
      {"measurement": "Stability following dilution in saline, Dilution 1/20: crystals appeared at", "setting": "[3]; [12]", "result": 3.5, "unit": "h"}
    ]}
  ]
}
